Experiment [1] has as its target T1, human Cav3.2 channels (Homo sapiens, UniProt O95180).
T1 construct: expressed in transfected cells; host or cells: HEK293 cells (ATCC No. CRL-1573), plasmid pcDNA3.1(+)
Nature of the experiment: Electrophysiological evaluation, whole-cell patch-clamp with automatic patch-clamp system. The conditions noted are these: for inhibition at 0.3 µM: holding potential −80 mV, read-out: Cav3.2 channel current inhibition ratio at 0.3 μM of test compound (holding potential −80 mV). It is filed as cell-based. As for the experimental part: Electrophysiological Evaluation
Stable cell line expressing human Cav3.2 channels, which had been produced by Test method (1) of Example 140, was seeded in a 10-cm dish using DMEM medium containing 10% FBS, and the cells were cultured for 24 hours or longer under the conditions of 37° C. and 5% CO2. The cells were detached using Accutase and were used after being suspended in ice-cold extracellular solution. The Cav3.2 channel current was measured by the Whole-cell patch-clamp method using an automatic patch-clamp system (Port-a-Patch; Nanion Technologies GmbH, EPC-10; HEKA Elektronik GmbH, Patchmaster; HEKA Elektronik GmbH) and buffers described below. Measurement of the Cav3.2 channel current was carried out at room temperature, and the measurement conditions were set as follows: holding potential: −80 mV, depolarization potential: −20 mV, depolarization time: 100 msec, and depolarization frequency: 10 sec. The Cav3.2 channel current was defined as the peak value of the inward current observed when depolarization occurred at −20 mV.
For a test compound, a DMSO solution was diluted 1,000 times with extracellular solution, and thus a solution having an intended concentration was produced. The test compound was applied using an extracellular perfusion system (Nanion Technologies GmbH) until the Cav3.2 channel current was stabilized, and five concentrations at the maximum from the low-concentration side were cumulatively applied. The inhibition ratio of the test compound was calculated from the current value immediately before the application of the test compound and the change rate of the Cav3.2 channel current after the application of the test compound (conditions for a holding potential of −80 mV: test compound concentration of 0.3 μM, conditions for a holding potential of −100 mV: test compound concentration of 3 μM).
Extracellular solution: 135 mM NaCl, 4 mM KCl, 1 mM MgCl2, 5 mM CaCl2, 5 mM D-Glucose, and 10 mM HEPES, pH 7.4
Internal solution for electrode: 10 mM NaCl, 10 mM HEPES, 50 mM CsCl, 60 mM CsF, and 20 mM EGTA, pH 7.2
For orientation: In patch-clamp work, channel activity is measured electrically.

The target of experiment [2] is T1, human Cav3.2 channels. Nature of the experiment: Intracellular calcium concentration measurement (Fluo-4 AM) in stable cells expressing human Cav3.2 channels, buffer A / buffer B. The format is cell-based. The method, boiled down: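 HEK293 cells stably expressing human Cav3.2, Fluo-4 loaded, preincubated 15 min at room temperature with compound (0.1% DMSO final) in buffer A (K+ equilibrium −92 mV) or B (−110 mV). After ionophore, KCl (83.8 or 91.8 mM) stimulus; 10 s fluorescence rise (ex 485/em 510 nm) gave % inhibition and IC50.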
In general terms: Calcium assays in cells follow changes in intracellular calcium, usually with a dye or a luminescent sensor.

The mark [3] stands for this setting: Tables 2 to 6, buffer A, equilibrium potential of potassium −92 mV, read-out: Inhibitory action of buffer A (inactivated state).
Setting [4] is: Table 1, buffer A, equilibrium potential of potassium −92 mV, read-out: Inhibitory action of buffer A (inactivated state).
The mark [5] stands for this setting: Table 1, buffer B, equilibrium potential of potassium −110 mV, read-out: Inhibitory action of buffer B (resting state or closed state).

Molecules are shown by their SMILES. Like-named read-outs stand apart in the source and are kept apart here.

T1 sequence (O95180 whole entry): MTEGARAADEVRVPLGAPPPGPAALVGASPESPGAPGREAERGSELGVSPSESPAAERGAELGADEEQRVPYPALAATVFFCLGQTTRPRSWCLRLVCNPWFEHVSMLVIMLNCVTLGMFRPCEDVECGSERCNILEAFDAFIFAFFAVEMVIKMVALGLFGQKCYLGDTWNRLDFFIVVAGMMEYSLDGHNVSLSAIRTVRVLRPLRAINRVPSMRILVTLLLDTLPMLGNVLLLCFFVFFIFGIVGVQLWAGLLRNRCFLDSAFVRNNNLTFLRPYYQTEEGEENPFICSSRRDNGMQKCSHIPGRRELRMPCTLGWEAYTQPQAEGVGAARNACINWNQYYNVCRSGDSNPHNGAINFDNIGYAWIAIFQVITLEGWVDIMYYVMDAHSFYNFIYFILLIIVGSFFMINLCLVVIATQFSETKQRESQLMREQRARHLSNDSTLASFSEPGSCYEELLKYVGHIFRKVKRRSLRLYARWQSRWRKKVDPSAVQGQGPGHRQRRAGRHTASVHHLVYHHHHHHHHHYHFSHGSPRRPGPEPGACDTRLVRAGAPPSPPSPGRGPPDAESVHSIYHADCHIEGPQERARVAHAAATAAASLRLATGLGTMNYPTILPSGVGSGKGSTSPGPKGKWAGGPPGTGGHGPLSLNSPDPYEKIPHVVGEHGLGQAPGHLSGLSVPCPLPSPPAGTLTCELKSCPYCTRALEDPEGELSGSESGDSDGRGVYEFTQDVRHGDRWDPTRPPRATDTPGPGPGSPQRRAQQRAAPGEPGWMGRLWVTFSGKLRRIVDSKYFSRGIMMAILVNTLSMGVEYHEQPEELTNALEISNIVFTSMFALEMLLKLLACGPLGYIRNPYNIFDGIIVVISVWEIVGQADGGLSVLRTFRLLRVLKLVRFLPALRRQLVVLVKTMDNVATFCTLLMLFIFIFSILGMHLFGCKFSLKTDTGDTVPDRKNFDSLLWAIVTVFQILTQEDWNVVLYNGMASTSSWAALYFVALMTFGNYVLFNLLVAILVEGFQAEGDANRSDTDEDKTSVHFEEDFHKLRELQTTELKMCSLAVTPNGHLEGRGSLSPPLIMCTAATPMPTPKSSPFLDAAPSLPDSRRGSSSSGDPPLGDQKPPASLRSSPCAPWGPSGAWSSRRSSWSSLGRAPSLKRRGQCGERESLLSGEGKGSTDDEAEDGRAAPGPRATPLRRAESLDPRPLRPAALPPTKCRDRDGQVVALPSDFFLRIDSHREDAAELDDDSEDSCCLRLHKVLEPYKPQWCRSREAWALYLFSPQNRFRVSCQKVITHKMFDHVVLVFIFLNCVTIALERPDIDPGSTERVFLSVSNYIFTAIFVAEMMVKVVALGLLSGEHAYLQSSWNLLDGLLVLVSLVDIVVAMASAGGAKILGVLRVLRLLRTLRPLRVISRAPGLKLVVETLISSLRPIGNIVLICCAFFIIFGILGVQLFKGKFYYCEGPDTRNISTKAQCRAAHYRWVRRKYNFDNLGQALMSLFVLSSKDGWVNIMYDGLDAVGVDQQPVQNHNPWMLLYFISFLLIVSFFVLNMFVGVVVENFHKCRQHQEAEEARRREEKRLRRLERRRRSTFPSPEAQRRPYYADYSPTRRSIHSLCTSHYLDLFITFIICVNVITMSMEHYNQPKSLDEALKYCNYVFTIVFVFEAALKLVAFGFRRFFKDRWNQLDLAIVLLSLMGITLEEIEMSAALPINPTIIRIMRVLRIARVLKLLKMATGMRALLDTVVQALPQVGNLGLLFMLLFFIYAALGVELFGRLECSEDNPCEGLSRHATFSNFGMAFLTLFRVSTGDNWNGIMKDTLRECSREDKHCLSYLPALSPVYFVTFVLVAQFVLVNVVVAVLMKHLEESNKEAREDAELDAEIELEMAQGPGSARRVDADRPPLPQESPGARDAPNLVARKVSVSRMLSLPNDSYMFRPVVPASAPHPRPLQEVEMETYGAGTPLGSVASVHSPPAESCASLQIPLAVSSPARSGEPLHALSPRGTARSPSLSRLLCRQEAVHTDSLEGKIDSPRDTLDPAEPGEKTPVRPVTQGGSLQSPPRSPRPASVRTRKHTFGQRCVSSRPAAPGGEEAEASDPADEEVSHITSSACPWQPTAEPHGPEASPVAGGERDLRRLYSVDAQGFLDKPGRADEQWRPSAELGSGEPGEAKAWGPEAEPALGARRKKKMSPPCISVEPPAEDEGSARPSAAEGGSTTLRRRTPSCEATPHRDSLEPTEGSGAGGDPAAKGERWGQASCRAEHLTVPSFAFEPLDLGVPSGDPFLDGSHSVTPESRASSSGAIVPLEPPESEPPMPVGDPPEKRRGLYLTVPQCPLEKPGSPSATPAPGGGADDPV

Consider `C[C@@H](NC(=O)C1CC1c1nc(-c2ccccn2)c[nH]1)c1ccc(OCC(F)(F)F)s1` (mixture of isomers) [Example 39, Trans-2-(4-(pyridin-2-yl)-1H-imidazol-2-yl)-N—((R)-1-(5-(2,2,2-trifluoroethoxy)thiophen-2-yl)ethyl)cyclopropane-1-carboxamide], for which the inhibition at 0.3 µM in experiment [1] was determined as 50%. The IC50 in experiment [2] (setting [3]) is 0.1 to 1 µM.
Turning to `C[C@@H](NC(=O)C1CC1c1nc2ccccc2[nH]1)c1cnc(OCC(F)(F)F)s1` (single isomer, unassigned) [Example 8A], in experiment [1], the inhibition at 0.3 µM amounted to 1% and the “Cav3.2 channel current inhibition ratio at 3 μM of test compound (holding potential −100 mV)” value worked out at 13%. Further, the IC50 in experiment [2] (setting [4]) lay within 0.1 to 1 µM. Also, in experiment [2] (setting [5]), the IC50 was more than 10 µM.
Consider `C[C@@H](NC(=O)C1CC1c1ccc2ccccc2n1)c1ccc(OCC(F)(F)F)s1` (single isomer, unassigned) [Example 34A], for which the inhibition at 0.3 µM in experiment [1] was determined as 58%. The IC50 in experiment [2] (setting [3]) fell in the range of 0.1 to 1 µM.
The like results for `C[C@@H](NC(=O)C1CC1c1c[nH]c2ccccc12)c1cnc(OCC(F)(F)F)s1` (single isomer, unassigned) [Example 49] were, in that order, 35% and not above 0.1 µM.
Turning to `C[C@@H](NC(=O)C1CC1c1ncc2ccccn12)c1cc2cc(F)ccc2o1` (single isomer, unassigned) [Example 117A], the inhibition at 0.3 µM in experiment [1] turned out to be 70%. For the same compound, in experiment [2] (setting [3]), the IC50 fell in the range of 0.1 to 1 µM.
Turning to `C[C@@H](NC(=O)[C@@H]1CCN(CC(=O)Nc2ccccc2)C1)c1ccc(OCC(F)(F)F)s1.Cl` [Example 17, hydrochloride], in experiment [1], the inhibition at 0.3 µM was determined as 64%. The IC50 in experiment [2] (setting [4]) lay within 0.1 to 1 µM; in experiment [2] (setting [5]), 1 to 10 µM.
Take `C[C@@H](NC(=O)[C@H]1C[C@@H]1c1nc2ccccc2[nH]1)c1ccc(C(=O)N(C)C)s1` [Example 84, 5-((R)-1-((1S,2S)-2-(1H-benzo[d]imidazol-2-yl)cyclopropane-1-carboxamido)ethyl)-N,N-dimethylthiophene-2-carboxamide]: in experiment [2] (setting [3]), the IC50 was in the range of 1 to 10 µM.
For the compound `C[C@@H](NC(=O)[C@H]1C[C@@H]1c1nc2ccccc2[nH]1)c1ccc2ccn(C)c2c1` [Example 86, (1S,2S)-2-(1H-benzo[d]imidazol-2-yl)-N—((R)-1-(1-methyl-1H-indol-6-yl)ethyl)cyclopropane-1-carboxamide], the IC50 in experiment [2] (setting [3]) was in the range of 1 to 10 µM.
The same measure, in the same setting: for `C[C@@H](NC(=O)[C@H]1C[C@@H]1c1nc2ccccc2[nH]1)c1ccc(C(=O)N2CCCCCC2)s1` [Example 87, (1S,2S)—N—((R)-1-(5-(azepane-1-carbonyl)thiophen-2-yl)ethyl)-2-(1H-benzo[d]imidazol-2-yl)cyclopropane-1-carboxamide] the value was 1 to 10 µM; for `C[C@@H](NC(=O)[C@H]1C[C@@H]1c1nc2ccccc2[nH]1)c1cnc(-c2ccccc2)s1` [Example 89, (1S,2S)-2-(1H-benzo[d]imidazol-2-yl)-N—((R)-1-(2-phenylthiazol-5-yl)ethyl)cyclopropane-1-carboxamide], 0.1 to 1 µM; for `C[C@@H](NC(=O)[C@H]1C[C@@H]1c1nc2ccccc2[nH]1)c1ccc(C(=O)N2CCC(F)(F)CC2)s1` [Example 94, (1S,2S)-2-(1H-benzo[d]imidazol-2-yl)-N—((R)-1-(5-(4,4-difluoropiperidine-1-carbonyl)thiophen-2-yl)ethyl)cyclopropane-1-carboxamide], 0.1 to 1 µM.
With `C[C@@H](NC(=O)[C@H]1C[C@@H]1c1nc2ccccc2[nH]1)c1ccc(C(=O)N2CCCC(F)C2)s1` (stereo partly drawn) [Example 95, (1S,2S)-2-(1H-benzo[d]imidazol-2-yl)-N-((1R)-1-(5-(3-fluoropiperidine-1-carbonyl)thiophen-2-yl)ethyl)cyclopropane-1-carboxamide], the IC50 in experiment [2] (setting [3]) was 1 to 10 µM.
As for `C[C@@H](NC(=O)[C@H]1C[C@@H]1c1nc2ccccc2[nH]1)c1cc2cccc(F)c2o1` [Example 96, (1S,2S)-2-(1H-benzo[d]imidazol-2-yl)-N—((R)-1-(7-fluorobenzofuran-2-yl)ethyl)cyclopropane-1-carboxamide], the IC50 in experiment [2] (setting [3]) was in the range of 0.1 to 1 µM.
On to `C[C@@H](NC(=O)[C@H]1C[C@@H]1c1nc2ccccc2[nH]1)c1cc2c(F)cccc2o1` [Example 97, (1S,2S)-2-(1H-benzo[d]imidazol-2-yl)-N—((R)-1-(4-fluorobenzofuran-2-yl)ethyl)cyclopropane-1-carboxamide], for which the IC50 in experiment [2] (setting [3]) lay within 0.1 to 1 µM.
Still for that read-out and setting: for `CC(NC(=O)[C@H]1C[C@@H]1c1nc2ccccc2[nH]1)c1cc2cnccc2o1` (stereo partly drawn) [Example 99, (1S,2S)-2-(1H-benzo[d]imidazol-2-yl)-N-(1-(furo[3,2-c]pyridin-2-yl)ethyl)cyclopropane-1-carboxamide] the value was 1 to 10 µM; for `C[C@@H](NC(=O)[C@H]1C[C@@H]1c1nc2ccccc2[nH]1)c1cc2cc(C#N)ccc2o1` [Example 107, (1S,2S)-2-(1H-benzo[d]imidazol-2-yl)-N—((R)-1-(5-cyanobenzofuran-2-yl)ethyl)cyclopropane-1-carboxamide], 0.1 to 1 µM.
On to `CCn1c([C@H]2C[C@@H]2C(=O)N[C@H](C)c2cc3ccc(F)cc3o2)nc2ccccc21` [Example 110, (1S,2S)-2-(1-ethyl-1H-benzo[d]imidazol-2-yl)-N—((R)-1-(6-fluorobenzofuran-2-yl)ethyl)cyclopropane-1-carboxamide], for which, in experiment [2] (setting [3]), the IC50 was not above 0.1 µM.
In the case of `O=C(NCc1cc2cc(F)ccc2o1)[C@H]1C[C@@H]1c1nc2ccccc2[nH]1` [Example 113, (1S,2S)-2-(1H-benzo[d]imidazol-2-yl)-N-((5-fluorobenzofuran-2-yl)methyl)cyclopropane-1-carboxamide], the IC50 in experiment [2] (setting [3]) was not above 0.1 µM.
Same read-out and setting: for `CC(C)[C@H](NC(=O)[C@H]1C[C@@H]1c1nc2ccccc2[nH]1)c1ccc(C(F)(F)F)s1` [Example 115, (1S,2S)-2-(1H-benzo[d]imidazol-2-yl)-N—((S)-2-methyl-1-(5-(trifluoromethyl)thiophen-2-yl)propyl)cyclopropane-1-carboxamide] the value was 0.1 to 1 µM.
Consider `C[C@@H](NC(=O)[C@H]1C[C@@H]1c1nc2cc(F)ccc2[nH]1)c1ccc(OCC(F)(F)F)s1` [Example 118, (1S,2S)-2-(5-fluoro-1H-benzo[d]imidazol-2-yl)-N—((R)-1-(5-(2,2,2-trifluoroethoxy)thiophen-2-yl)ethyl)cyclopropane-1-carboxamide], for which, in experiment [2] (setting [3]), the IC50 is not above 0.1 µM.
Take `C[C@@H](NC(=O)[C@H]1C[C@@H]1c1nc2ccccc2[nH]1)c1cc2ccc(F)cc2s1` [Example 119, (1S,2S)-2-(1H-benzo[d]imidazol-2-yl)-N—((R)-1-(6-fluorobenzo[b]thiophen-2-yl)ethyl)cyclopropane-1-carboxamide]: the IC50 in experiment [2] (setting [3]) is not above 0.1 µM.
In the case of `CC(C)[C@@H](NC(=O)[C@H]1C[C@@H]1c1nc2ccccc2[nH]1)c1cc2ccc(F)cc2s1` [Example 120, (1S,2S)-2-(1H-benzo[d]imidazol-2-yl)-N—((R)-1-(6-fluorobenzo[b]thiophen-2-yl)-2-methylpropyl)cyclopropane-1-carboxamide], in experiment [2] (setting [3]), the IC50 is 0.1 to 1 µM.
With `C[C@@H](NC(=O)[C@@H]1CCN(c2ccc(C(F)(F)F)cn2)C1)c1cc2cc(F)ccc2o1` [Example 121, (R)—N—((R)-1-(5-fluorobenzofuran-2-yl)ethyl)-1-(5-(trifluoromethyl)pyridin-2-yl)pyrrolidine-3-carboxamide], in experiment [2] (setting [3]), the IC50 was more than 10 µM.
Same read-out and setting: for `C[C@@H](NC(=O)[C@@H]1CCN(c2nc3ccccc3s2)C1)c1cc2cc(F)ccc2o1` [Example 126, (R)-1-(benzo[d]thiazol-2-yl)-N—((R)-1-(5-fluorobenzofuran-2-yl)ethyl)pyrrolidine-3-carboxamide] the value was 0.1 to 1 µM; for `O=C(NC1(c2cc3cc(F)ccc3o2)CC1)[C@H]1C[C@@H]1c1nc2ccccc2[nH]1` [Example 128, (1S,2S)-2-(1H-benzo[d]imidazol-2-yl)-N-(1-(5-fluorobenzofuran-2-yl)cyclopropyl)cyclopropane-1-carboxamide], 0.1 to 1 µM.
`C[C@@H](NC(=O)C1CC1c1nc2ccccc2[nH]1)c1cnc(OCC(F)(F)F)cn1` (stereo partly drawn) [RQ-00311651, reference compound]: in experiment [1], the inhibition at 0.3 µM is 17% and the “Cav3.2 channel current inhibition ratio at 3 μM of test compound (holding potential −100 mV)” value is given as 14%.

(Values after US11420944B2, “Voltage-dependent t-type calcium channel blocker” (Nippon Chemiphar Co., Ltd., priority 2016, dated 2022).)
